15 compounds from US6828345B2, “O-substituted 6-methyltramadol derivatives” (Gruenenthal GmbH, priority 2000, dated 2004) can be followed below.

Assay [1] concerns tail-flick pain latency in mice. Put plainly: Tail-flick (focussed beam) test on mice. Particulars: for ED50: Mus musculus. In kind it is in vivo, NMR mice. The source says: The analgesic effectiveness of the compounds according to the invention was investigated by the focussed beam (tail-flick) test in mice according to the method developed by D'Amour and Smith (J. Pharmaceutical. Exp. Ther. 72, 74 79 (1941)). NMR mice weighing between 20 and 24 g were used for this purpose. The animals were placed individually in special test cages and the base of the tail was subjected to a focused beam of light from an electric lamp (tail-flick type 55/12/10.fl, Labtec, Dr Hess). The lamp intensity was adjusted so that the time from when the lamp was switched on to the sudden withdrawal of the tail (pain latency) was 3 to 5 seconds in the case of untreated animals. Before administration of a compound according to the invention the animals were pre-tested twice within 5 minutes and the mean value of these measurements was calculated as a pre-test mean value. The pain measurements were carried out 20, 40 and 60 minutes after intravenous administration. The analgesic action was calculated as the increase in the pain latency (% MPE) according to the following formula: […]
Here T0 is the latency time before application of the substance and T1 the latency time after application of the substance, and T2 is the maximum exposure time (12 sec).
In order to determine the dose dependence the respective compound according to the invention was applied in 3 to 5 logarithmically increasing doses that included in each case the threshold dose and the maximal effect dose, and the ED50 values were determined by means of regression analysis. The ED50 calculation was carried out at the effect maximum 20 minutes after intravenous administration of the substance.

The subject of assay [2] is phenylquinone-induced writhing reaction in mice. The assay can be described thus: Phenylquinone-induced writhing test in mice. Type of assay: in vivo, Male NMRI mice. Conditions: orally, phenylquinone i.p. 30 minutes after oral administration, writhing counted 5-20 minutes after phenylquinone; for ED50: Mus musculus, read-out: ED50 writhing inhibition. The protocol: The analgesic effectiveness of the compounds according to the invention was investigated in mice using the phenylquinone-induced writhing test as modified by I. C. Hendershot, J. Forsaith in J. Pharmacol. Exptl. Ther. 125, 237 (1959). Male NMRI mice weighing between 25 and 30 g were used for this purpose. Groups of 10 animals per substance dose received intraperitoneally 30 minutes after oral administration of a compound according to the invention, 0.3 ml per mouse of a 0.02% aqueous phenylquinone solution (phenylbenzoquinone, from Sigma, Deisenhofen; solution prepared by addition of 5% ethanol and storage in a water bath at 45° C.). The animals were then placed individually in observation cages. The number of pain-induced stretching movements (writhing reaction=contortion of the body accompanied by stretching of the rear extremities) was counted using a push-button counter 5-20 minutes after administration of the phenylquinone. The ED50 values (effective dose with 50% inhibition of the writhing reaction) were calculated with 95% level of confidence by means of regression analysis (evaluation program from Martens EDV-Service, Ekental) from the dose-dependent reduction in the writhing reaction compared to mice investigated in parallel to which only phenylquinone had been administered.
A general note: An intraperitoneal irritant provokes the stretching counted in writhing tests.

Where [3] appears, read: iv, 20 min, i.v., effect maximum 20 minutes after intravenous administration.
Setting [4] is: i.v., effect maximum 20 minutes after intravenous administration.

One may read the ED50 as the dose that gives a 50% effect, or the effect in half of the subjects.

Consider `COc1cccc(C2(O)C(C)CCCC2CN(C)C)c1` (racemic) [Example 1, 2-dimethylaminomethyl-1-(3-methoxyphenyl)-6-methylcyclohexanol], for which the 50% effect level in assay [1] (setting [3]) (ED50) was put at a dose of 5.6 mg/kg. Same read-out and setting: the value for `CCOc1cccc(C2(O)C(C)CCCC2CN(C)C)c1` (racemic) [Example 2, 2-dimethylaminomethyl-1-(3-ethoxyphenyl)-6-methylcyclohexanol] was 11.9 mg/kg. In assay [2], `CC1CCCC(CN(C)C)C1(O)c1cccc(O)c1` (racemic) [Example 3, 3-(2-dimethylaminomethyl-1-hydroxy-6-methyl-cyclohexyl)phenol] showed an ED50 writhing inhibition of 2.09 mg/kg. For the same compound, the ED50 in assay [1] (setting [3]) worked out at 2.15 mg/kg.

As to `C=CCOc1cccc(C2(O)C(C)CCCC2CN(C)C)c1` (racemic) [Example 4, 1-(3-allyloxyphenyl)-2-dimethylaminomethyl-6-methylcyclohexanol], the 50% effective dose (ED50) in assay [2] came to 9.38 mg/kg; in assay [1] (setting [3]), 20.2 mg/kg. In assay [2], `CC1CCCC(CN(C)C)C1(O)c1cccc(O)c1` (racemic) [Example 8, 3-(2-dimethylaminomethyl-1-hydroxy-6-methylcyclohexyl)-phenol] yielded an ED50 writhing inhibition of 14.0 mg/kg. On to `COc1cccc(C2(O)C(C)CCCC2CN(C)C)c1` (stereo not drawn) [Example 5, 2-dimethylaminomethyl-1-(3-methoxyphenyl)-6-methylcyclohexanol], for which the ED50 in assay [2] was 11 mg/kg; in assay [1] (po, orally (cell note)) it was 42.9 mg/kg. As for `COc1cccc(C2(O)C(C)CCCC2CN(C)C)c1` (stereo not drawn) [Example 6, 2-dimethylaminomethyl-1-(3-methoxyphenyl)-6-methylcyclohexanol], in assay [2], the ED50 writhing inhibition is given as 6.58 mg/kg. The same compound registered an ED50 in assay [1] (setting [3]) of 7.73 mg/kg. The compound `CC1CCCC(CN(C)C)C1(O)c1cccc(O)c1` (stereo not drawn) [Example 9, 3-(2-dimethylaminomethyl-1-hydroxy-6-methylcyclohexyl)-phenol] returned an ED50 writhing inhibition in assay [2] of 19.8 mg/kg. Also, the ED50 tail-flick in assay [1] (setting [4]) stood at 14.7 mg/kg.

In turn, `CC1CCCC(CN(C)C)C1(O)c1cccc(O)c1` (stereo not drawn) [Example 10, 3-(2-dimethylaminomethyl-1-hydroxy-6-methylcyclohexyl)-phenol] displayed an ED50 writhing inhibition in assay [2] of 5.3 mg/kg. The ED50 tail-flick in assay [1] (setting [4]) amounted to 0.91 mg/kg. On to `CCOc1cccc(C2(O)C(C)CCCC2CN(C)C)c1` (stereo not drawn) [Example 11, 2-dimethylaminomethyl-1-(3-ethoxyphenyl)-6-methylcyclohexanol], for which, in assay [2], the ED50 writhing inhibition came out at 21.6 mg/kg. As for `CCOc1cccc(C2(O)C(C)CCCC2CN(C)C)c1` (stereo not drawn) [Example 12, 2-dimethylaminomethyl-1-(3-ethoxyphenyl)-6-methylcyclohexanol], in assay [2], the ED50 writhing inhibition was 4.39 mg/kg. In assay [1] (setting [3]), this compound came in with an ED50 of 13.4 mg/kg.

Consider `CC1CCCC(CN(C)C)C1(O)c1cccc(OC2CCCC2)c1` (stereo not drawn) [Example 14, 1-(3-cyclopentyloxyphenyl)-2-dimethylaminomethyl-6-methylcyclohexanol], for which the figures for the ED50 in assay [2] and in assay [1] (setting [3]) were 26.2 mg/kg and 20 mg/kg, respectively.

Consider `CC1CCCC(CN(C)C)C1(O)c1cccc(OCC2CCC2)c1` (stereo not drawn) [Example 16, 1-(3-cyclobutylmethoxyphenyl)-2-dimethylaminomethyl-6-methylcyclohexanol], for which the 50% effective dose (ED50) in assay [2] was found to be 32.8 mg/kg; in assay [1] (setting [3]), 21.5 mg/kg. On to `C#COc1cccc(C2(O)C(C)CCCC2CN(C)C)c1` (stereo not drawn) [Example 19, 2-dimethylaminomethyl-1-(3-ethynyloxyphenyl)-6-methylcyclohexanol], for which, in assay [1] (setting [3]), it took a dose of 14.7 mg/kg to reach the 50% effect level (ED50). Same read-out and setting: the value for `CC1CCCC(CN(C)C)C1(O)c1cccc(OC2CCC2)c1` (stereo not drawn) [Example 21, 1-(3-cyclobutoxyphenyl)-2-dimethylaminomethyl-6-methylcyclohexanol] was 30 mg/kg.
